Source: publication PMC9919139, “Sustainable Synthesis, Antiproliferative and Acetylcholinesterase Inhibition of 1,4- and 1,2-Naphthoquinone Derivatives” (Molecules, 2023)
Where “and” joins values, the source holds several entries; their conditions need not be identical. Identical values can stand only once. Like-named read-outs stand apart in the source and are kept apart here.

Assays:
AChE = conditions: read-out: AChEIC50 of reference AChE inhibitors; cited from earlier work
[1] = MTT cytotoxicity assay against HepG2 cell line; assay type: cell-based, human; conditions: human, HepG2 cells, HepG2, 24 h incubation, mean ± SD, read-out: EC50 (cytotoxicity, concentration leading to the death of 50% of the cells)
Method: (§1) A hepatocellular carcinoma cell line HepG2, recognized for studying the metabolism of anticancer drugs, was used. The viability of HepG2 cell line culture after 24 h incubation with the compounds using the MTT (3-[4,5-dimethylthiazol-2-yl]-2,5-diphenyl tetrazolium bromide) assay was evaluated, and doxorubicin (Doxo) was used as a positive control.
(§2) HepG2 human hepatocyte carcinoma cell line was purchased from European Collection of Authenticated Cell Cultures (ECACC). HepG2 cells (ECACCC# 85011430) were cultured in Dulbecco’s Modified Eagle´s Medium (DMEM) supplemented with 10% fetal bovine serum, antibiotic-antimycotic (100 U/mL penicillin-streptomycin and 0.25 μg amphotericin B) and 2 mM L-glutamine at 37 °C in an atmosphere containing 5% CO2. The 3-(4,5-dimethylthiazol-2-yl)-2,5-diphenyltetrazolium bromide (MTT) method, described in Gaspar et al., [50] was used for assaying cell viability. Briefly, the cells were grown in the supplemented medium in 96-well microplates in an incubator with 5% CO2 at 37 °C, until reaching 100% confluence. After growth, the medium was replaced by the compounds’ solutions at different concentrations. The compounds were solubilized in supplemented medium containing 0.5% DMSO final concentration. Cells treated only with medium containing 0.5% DMSO served as a negative control. After 24 h incubation, the compound’s solutions were replaced by 100 µL of 0.5 mg/mL MTT solution in DMEM culture medium and incubated at 37 °C, 5% CO2 for 2–4 h. The formed formazan crystals were dissolved in 200 µL of methanol and the absorbance at 595 nm was registered against 630 nm (reference wavelength). For each concentration of the compounds, the percentage of growth inhibition/cytotoxicity was evaluated considering 100% of viability for the absorbance of the negative control. Dose-response curves for each compound were plotted using the Graph Pa Prim 4.0 software and the effective concentration leading to the death of 50% of the cells (EC50) was calculated. All experiments were replicated at least six times.

[2] = target: acetylcholinesterase (AChE) (Homo sapiens, UniProt P22303); experiment: AChE inhibition assay (Ellman's colorimetric method); assay type: biochemical; conditions: for IC50: concentration that inhibits 50% of the AChE activity, read-out: AChEIC50
Method: The inhibition of acetylcholinesterase (AChE) enzymatic activity was measured using the Ellman’s colorimetric method with some alterations. Briefly, 325 μL of 50 mM Tris–HCl buffer (pH 8), 100 μL of a compound’s solution with 1% DMSO, and 25 μL of AChE (0.1 U/mL) in 50 mM Tris–HCl buffer pH 8 were incubated for 15 min. Subsequently, 75 μL of acetylthiocholine iodide (AChI) (0.023 mg/mL) and 475 μL of 3 mM 5,5′-dithiobis(2-nitrobenzoic acid) (DTNB) in Tris–HCl buffer (pH 8) containing 0.05 M NaCl and 0.021 M MgCl2 were added to initiate the reaction. The initial rate of the enzymatic reaction was quantified by measuring the absorbance at 405 nm for 5 min (V[compound]). A control reaction was carried out using 1% DMSO water solution, instead of the compound’s solution, and this initial rate was considered 100% of the enzymatic activity, Vcontrol. The percentage of AChE inhibition (I) for various concentrations of the different compounds was determined as the ratio of V[compound] and Vcontrol. For each compound, both the AChEIC50 value (the concentration that inhibits 50% of the AChE activity) and the percentage of inhibition at the compound concentration of 50 µM (Inhibition50µM) were calculated by plotting I for each compound concentration. All the assays were carried out in triplicate.

[3] = Cyclic voltammetry in acetonitrile; assay type: physicochemical; conditions: for Ipa/Ipc: Tables S1/S2, acetonitrile; for Epa. Epc: Tables S1/S2, peak separation; for ∆E (I) / E1/2 (I) / Epc (I): first reduction wave; for ∆E (I) / E1/2 (I) / Epc (I) / ∆E (II) / E1/2 (II) / Epc (II): scan rate 0.100 V·s−1; for ∆E (II) / E1/2 (II) / Epc (II): second reduction wave
Text: To obtain an insight into the electronic character of the studied naphthoquinone derivatives and to find out possible relationships with their potential biological activities, the electrochemical behavior of 1,4-NQ (1) and 1,2-NQ (2) and their 2-substituted-1,4-NQ (3a–f) and 4-substituted-1,2-NQ derivatives (4a–h), respectively, were studied by cyclic voltammetry (CV) in aprotic medium (CH3CN + TBAP, 0.1 mol.L^−^1) and the electrochemical selected data are listed in Table 3 (for complete electrochemical data, see Tables S1 and S2, supplementary material).
The redox potentials were measured by cyclic voltammetry using an EG&G Princeton Applied Research (PAR) Model 273A potentiostat/galvanostat monitored by a personal computer with the Electrochemistry PowerSuite v2.51 software from PAR. Cyclic voltammograms were obtained in 1 mM of compounds in anhydrous acetonitrile solutions containing tetrabutylammonium hexafluorophosphate (TBAPF6) 0.1 M as supporting electrolyte. A three-electrode configuration cell was used with a homemade platinum disk working electrode (1.0 mm diameter) probed by a Luggin capillary connected to a silver-wire pseudo-reference electrode and a platinum wire auxiliary electrode. The potentials were scanned from −1.8 to 1.8 V at a scan rate of 100 mV·s^−^1. All measurements were done at room temperature and the solutions were deaerated with nitrogen atmosphere before use. All the potentials reported were measured against the ferrocene/ferrocenium redox couple as internal standard and corrected to SCE (using the ferrocenium/ferrocene redox couple E1/2 = 0.40 V vs. SCE).

[4] = system: HepG2 human hepatocyte carcinoma cell line; experiment: MTT cytotoxicity assay against HepG2 cell line; assay type: cell-based; conditions: HepG2, 24 h incubation, mean ± SD, read-out: EC50 (cytotoxicity, concentration leading to the death of 50% of the cells)
Method: as §1, §2

[5] = read-out: Inhibiton50µM (μM±SD)
[6] = Tables S1/S2, every redox process listed, acetonitrile, vs SCE, 100 mV.s-1
[7] = read-out: Inhibition50µM (AChE inhibition)

acetylcholinesterase (AChE), sequence (P22303 32-614): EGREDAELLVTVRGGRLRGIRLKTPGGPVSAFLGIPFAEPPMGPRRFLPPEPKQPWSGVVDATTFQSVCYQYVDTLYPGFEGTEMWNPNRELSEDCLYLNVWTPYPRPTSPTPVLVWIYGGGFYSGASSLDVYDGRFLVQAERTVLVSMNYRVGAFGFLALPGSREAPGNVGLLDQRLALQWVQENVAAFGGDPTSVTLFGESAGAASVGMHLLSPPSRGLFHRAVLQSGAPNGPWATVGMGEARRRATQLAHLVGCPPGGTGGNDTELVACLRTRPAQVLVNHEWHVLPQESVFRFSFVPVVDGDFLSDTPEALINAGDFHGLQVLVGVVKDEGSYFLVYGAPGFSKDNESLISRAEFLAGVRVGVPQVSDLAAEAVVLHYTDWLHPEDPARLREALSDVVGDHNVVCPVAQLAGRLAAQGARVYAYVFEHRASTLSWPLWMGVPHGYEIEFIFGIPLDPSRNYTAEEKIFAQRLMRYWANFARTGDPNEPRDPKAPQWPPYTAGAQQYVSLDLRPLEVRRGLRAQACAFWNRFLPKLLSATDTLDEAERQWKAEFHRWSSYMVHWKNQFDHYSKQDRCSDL

Compound	EC50 at 24 h [1]	inhibition at 50 µM [2, 5]	Ipa/Ipc ([3]; 100 mV.s-1)	Epa. Epc ([3]; acetonitrile, 100 mV.s-1)	∆E (I) ([3]; acetonitrile)	E1/2 (I) ([3]; acetonitrile, vs SCE)	Epc (I) ([3]; acetonitrile, vs SCE)	Epc (II) ([3]; acetonitrile, vs SCE)	E1/2 [3, 6]	also measured
CCCCNC1=CC(=O)c2ccccc2C1=O [Compound 3e, 2-(butan-1-amine)-1,4-naphthoquinone]	35.8 ± 1.5 µM	48.3 ± 1.6%	1.0	100 mV	70 mV	−0.95 V	−0.98 V	−1.47 V	–	∆E (II) ([3]; acetonitrile): 100 mV; E1/2 (II) ([3]; acetonitrile, vs SCE): −1.42 V
CCN(CC)C1=CC(=O)c2ccccc2C1=O [Compound 3f, 2-(diethylamine)-1,4-naphthoquinone]	64.7 ± 1.4 µM	47.9 ± 2.5%	1.0	–	70 mV	−0.94 V	−0.97 V	–	-0.94 V	Epc [3, 6]: -0.97 V
Nc1ccc(NC2=CC(=O)C(=O)c3ccccc32)cc1 [Compound 4a]	2.7 ± 1 µM	51.7 ± 2.1%	–	–	–	–	−0.67 V	–	–	EC50 [4]: 3 µM; Epc [3, 6]: -0.67 V
O=C1C=C(Nc2ccc(Nc3ccccc3)cc2)c2ccccc2C1=O [Compound 4g]	9.2 ± 2.3 µM	75.3 ± 1.3%	–	–	–	–	−0.63 V	−1.43 V	–	–
N#Cc1ccc(NC2=CC(=O)c3ccccc3C2=O)cc1 [Compound 3d, 2-(4-aminobenzonitrile)-1,4-naphthoquinone]	79.4 ± 1.4 µM	25.8 ± 3%	1.0	80 mV	80 mV	−0.70 V	−0.74 V	–	-0.70 V	Epa [3, 6]: -0.66 V
O=C1C=CC(=O)c2ccccc21 [Compound 1, 1,4-naphthoquinone, reference compound]	32.2 ± 1.4 µM	50.7 ± 2.3%	0.9	80 mV	80 mV	−0.66 V	−0.70 V	−1.36 V	-0.66 V	EC50 ([4]; listed as 1,4-NQ): 32 µM; inhibition at 50 µM [2, 7]: 51%
CCN(CC)C1=CC(=O)C(=O)c2ccccc21 [Compound 4f, 4-(diethylamine)-1,2-naphthoquinone]	23.1 ± 1.7 µM	54.7 ± 2%	0.9	120 mV	–	–	−0.52 V	−0.69 V	-0.63 V	∆E (II) ([3]; acetonitrile): 120 mV; E1/2 (II) ([3]; acetonitrile, vs SCE): −0.63 V
COc1cccc2c1C(=O)c1c(O)c3c(c(O)c1C2=O)C[C@@](O)(C(=O)CO)C[C@@H]3O[C@H]1C[C@H](N)[C@H](O)[C@H](C)O1 [Doxorubicin, doxorubicin, reference compound]	1.42 ± 1 µM	–	–	–	–	–	–	–	–	EC50 [4]: 1.4 µM
CCCCNC1=CC(=O)C(=O)c2ccccc21 [Compound 4e, 4-(butan-1-amine)-1,2-naphthoquinone]	26.8 ± 1.1 µM	62.4 ± 1.5%	–	150 mV	–	–	−0.78 V	–	-0.71 V	Epc [3, 6]: -0.78 V
O=C1C=C(Nc2ccc(O)cc2)c2ccccc2C1=O [Compound 4b]	7.1 ± 1.8 µM	74.1 ± 1.1%	–	–	–	–	−0.61 V	–	–	IC50 [2]: 30 µM; Epc [3, 6]: -0.61 V
Nc1ccc(NC2=CC(=O)c3ccccc3C2=O)cc1 [Compound 3a, 2-(1,4-Phenylenediamine)-1,4-naphthoquinone]	8.7 ± 1.3 µM	23.4 ± 2.5%	0.9	80 mV	80 mV	−0.82 V	−0.86 V	−1.42 V	-0.82 V	–
COc1ccc(NC2=CC(=O)c3ccccc3C2=O)cc1 [Compound 3c, 2-(4-methoxyaniline)-1,4-naphthoquinone]	13 ± 1.8 µM	25.9 ± 3%	1.0	120 mV	70 mV	−0.82 V	−0.86 V	−1.34 V	–	–
COc1ccc(NC2=CC(=O)C(=O)c3ccccc32)cc1 [Compound 4c]	6.5 ± 1.4 µM	45.8 ± 2.9%	–	–	–	–	−0.67 V	–	–	–
N#Cc1ccc(NC2=CC(=O)C(=O)c3ccccc32)cc1 [Compound 4d]	26.8 ± 1.1 µM	41.6 ± 2.4%	–	–	–	–	−0.47 V	−0.84 V	–	–
O=C1C=C(Nc2ccc(O)cc2)C(=O)c2ccccc21 [Compound 3b, 2-(4-aminophenol)-1,4-naphthoquinone]	21.4 ± 3.9 µM	16.4 ± 2%	1.0	–	70 mV	−0.81 V	−0.84 V	–	-0.81 V	Epc [3, 6]: -0.84 V
O=C1C=Cc2ccccc2C1=O [Compound 2, 1,2-naphthoquinone]	25.6 ± 1.1 µM	34.9 ± 5.2%	1.0	110 mV and 140 mV	110 mV	−0.50 V	−0.55 V	−0.98 V	–	EC50 ([4]; listed as 1,2-NQ): 26 µM; inhibition at 50 µM [2, 7]: 35%; ∆E (II) ([3]; acetonitrile): 140 mV; E1/2 (II) ([3]; acetonitrile, vs SCE): −0.91 V
O=C1C=C(Nc2ccccc2O)c2ccccc2C1=O [Compound 4h]	9.1 ± 3.3 µM	85.3 ± 1.3%	–	–	–	–	−0.57 V	−0.98 V	–	IC50 [2]: 16 µM; inhibition at 50 µM [2, 7]: 85%
